Drawing on ChEMBL document CHEMBL1158110, “Chaetopyranin, a benzaldehyde derivative, and other related metabolites from Chaetomium globosum, an endophytic fungus derived from the marine red alga Polysiphonia urceolata” (J Nat Prod, 2006), this text covers IC50 for four compounds.

Experiment [1] deals with Radical scavenging activity. The experiment is described as follows: Antioxidant activity assessed as DPPH free radical scavenging activity. Format: functional.
Experiment [2] deals with A549. The experiment is described as follows: Cytotoxicity against human A549 cells. Format: functional, cell-based.
The test system of experiment [3] is HMEC. The experiment is described as follows: Cytotoxicity against HMEC. Format: cell-based. Conditions: Homo sapiens.
Experiment [4] deals with SMMC-7721. The experiment is described as follows: Cytotoxicity against human SMMC7721 cells. Format: functional, cell-based.

Structures are written as SMILES. In brackets after ≈: the same amount, converted by molar mass.

With `COc1cc(O)c2c(c1)C(=O)c1c(O)c(C)cc(O)c1C2=O` [PARIETIN], the IC50 in experiment [1] worked out at 62 µg/mL (≈ 206 µM).

On to `CCC/C=C/c1cc2c(C=O)c(O)c(CC=C(C)C)cc2o1`, for which the IC50 in experiment [1] came out at 88 µg/mL (≈ 295 µM).

`CC(C)=CCc1cc2c(c(C=O)c1O)CCC(/C=C/C(C)O)O2` (configuration not stated) [CHAETOPYRANIN]: the IC50 in experiment [2] came out at 39.1 µg/mL (≈ 124 µM); in experiment [3], 15.4 µg/mL (≈ 48.7 µM); in experiment [4], 28.5 µg/mL (≈ 90.1 µM); in experiment [1], 35 µg/mL (≈ 111 µM).

On to `C/C=C/CCCCc1c(O)cc(CC=C(C)C)c(O)c1C=O` [ISOTETRAHYDROAUROGLAUCIN], for which, in experiment [1], the IC50 was 26 µg/mL (≈ 86 µM).
